Laboratory results reported in ChEMBL document CHEMBL1201862, “PubChem BioAssay data set” (2004).
Each block holds one compound with its values, some of them ahead of it. Activity calls are given as the source filed them.

Legend:
[1] = biological target: T1, Caspase-3 (Homo sapiens, UniProt P42574); type: functional;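 also: Dose-response selectivity test against caspase-3 for candidate inhibitors of sentrin-specific proteases (SENPs)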
T1 sequence (P42574 whole entry): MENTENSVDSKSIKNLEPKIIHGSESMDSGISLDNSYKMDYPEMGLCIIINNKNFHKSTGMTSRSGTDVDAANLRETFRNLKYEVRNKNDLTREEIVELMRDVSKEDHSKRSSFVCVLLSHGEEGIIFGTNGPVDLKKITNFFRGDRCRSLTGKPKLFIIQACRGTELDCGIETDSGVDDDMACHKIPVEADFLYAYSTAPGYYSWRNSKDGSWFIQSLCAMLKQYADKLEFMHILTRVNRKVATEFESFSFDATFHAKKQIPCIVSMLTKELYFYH

[2] = biological target: T2, Sentrin-specific protease 7 (Homo sapiens, UniProt Q9BQF6); type: functional;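 also: Luminescence-based dose-response confirmation of ultra-high-throughput screening hits, measuring inhibition of SENP7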
T2 sequence (Q9BQF6 whole entry): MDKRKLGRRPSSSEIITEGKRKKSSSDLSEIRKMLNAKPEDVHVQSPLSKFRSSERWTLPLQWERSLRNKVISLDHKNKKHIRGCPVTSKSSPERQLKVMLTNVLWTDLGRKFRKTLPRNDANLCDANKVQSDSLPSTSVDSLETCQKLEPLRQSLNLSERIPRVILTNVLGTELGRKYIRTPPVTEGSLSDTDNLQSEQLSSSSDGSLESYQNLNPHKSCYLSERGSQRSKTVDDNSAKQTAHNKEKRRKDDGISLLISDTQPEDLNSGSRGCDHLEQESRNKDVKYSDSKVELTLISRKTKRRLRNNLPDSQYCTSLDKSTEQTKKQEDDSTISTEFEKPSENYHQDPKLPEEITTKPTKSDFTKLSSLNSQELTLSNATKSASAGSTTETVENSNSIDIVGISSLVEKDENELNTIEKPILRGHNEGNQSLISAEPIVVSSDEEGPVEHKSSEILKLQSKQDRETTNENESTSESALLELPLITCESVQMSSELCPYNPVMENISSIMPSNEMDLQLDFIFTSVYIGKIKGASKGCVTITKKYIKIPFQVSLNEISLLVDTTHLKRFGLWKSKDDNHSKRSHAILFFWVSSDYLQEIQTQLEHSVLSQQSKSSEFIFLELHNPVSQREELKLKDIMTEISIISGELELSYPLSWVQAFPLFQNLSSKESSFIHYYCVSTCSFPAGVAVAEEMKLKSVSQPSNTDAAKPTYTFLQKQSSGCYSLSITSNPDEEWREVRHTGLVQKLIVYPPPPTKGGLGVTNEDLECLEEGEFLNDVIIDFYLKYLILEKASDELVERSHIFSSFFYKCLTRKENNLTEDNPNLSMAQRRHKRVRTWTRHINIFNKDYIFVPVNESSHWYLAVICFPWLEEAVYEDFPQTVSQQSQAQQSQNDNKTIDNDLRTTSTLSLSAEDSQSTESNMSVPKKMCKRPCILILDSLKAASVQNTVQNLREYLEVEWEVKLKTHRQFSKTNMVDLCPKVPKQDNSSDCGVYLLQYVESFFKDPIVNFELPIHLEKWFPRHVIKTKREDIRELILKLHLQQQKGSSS

[3] = biological target: T3, Sentrin-specific protease 6 (Homo sapiens, UniProt Q9GZR1); type: functional;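 also: Luminescence-based dose-response confirmatory assay of SENP6 inhibition, following up an ultra-high-throughput screen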
T3 sequence (Q9GZR1 whole entry): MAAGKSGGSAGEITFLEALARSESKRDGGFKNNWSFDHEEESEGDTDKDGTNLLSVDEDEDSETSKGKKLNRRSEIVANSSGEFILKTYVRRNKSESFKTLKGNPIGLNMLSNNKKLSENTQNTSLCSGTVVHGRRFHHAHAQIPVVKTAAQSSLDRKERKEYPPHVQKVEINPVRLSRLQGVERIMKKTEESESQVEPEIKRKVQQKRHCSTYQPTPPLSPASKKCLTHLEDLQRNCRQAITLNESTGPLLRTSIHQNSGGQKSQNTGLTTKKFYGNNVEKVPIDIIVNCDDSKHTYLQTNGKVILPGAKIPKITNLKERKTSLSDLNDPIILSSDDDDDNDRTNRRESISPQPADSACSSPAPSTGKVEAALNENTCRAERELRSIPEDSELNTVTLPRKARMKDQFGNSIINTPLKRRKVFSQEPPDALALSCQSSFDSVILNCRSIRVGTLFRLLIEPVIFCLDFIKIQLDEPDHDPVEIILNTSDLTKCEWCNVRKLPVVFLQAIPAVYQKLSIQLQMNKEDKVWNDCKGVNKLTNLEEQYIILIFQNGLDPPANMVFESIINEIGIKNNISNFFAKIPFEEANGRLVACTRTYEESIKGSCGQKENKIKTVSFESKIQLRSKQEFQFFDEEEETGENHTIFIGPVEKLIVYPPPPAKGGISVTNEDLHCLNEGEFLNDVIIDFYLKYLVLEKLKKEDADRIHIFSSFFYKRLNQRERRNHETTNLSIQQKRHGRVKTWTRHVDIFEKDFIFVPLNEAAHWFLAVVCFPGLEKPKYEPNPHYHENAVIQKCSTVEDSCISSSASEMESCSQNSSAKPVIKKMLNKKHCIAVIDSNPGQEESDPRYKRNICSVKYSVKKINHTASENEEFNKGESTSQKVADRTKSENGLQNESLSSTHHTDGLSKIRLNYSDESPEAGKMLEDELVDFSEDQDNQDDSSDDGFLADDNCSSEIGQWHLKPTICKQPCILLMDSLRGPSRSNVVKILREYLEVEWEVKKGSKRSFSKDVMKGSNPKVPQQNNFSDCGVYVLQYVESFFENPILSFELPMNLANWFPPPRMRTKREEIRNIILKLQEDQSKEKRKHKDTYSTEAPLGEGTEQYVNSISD

[4] = biological target: T4, Sentrin-specific protease 8 (Homo sapiens, UniProt Q96LD8); type: functional;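 also: luminescence read-out of SENP8 inhibition, dose-response confirmation following an ultra-high-throughput screen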
T4 sequence (Q96LD8 whole entry): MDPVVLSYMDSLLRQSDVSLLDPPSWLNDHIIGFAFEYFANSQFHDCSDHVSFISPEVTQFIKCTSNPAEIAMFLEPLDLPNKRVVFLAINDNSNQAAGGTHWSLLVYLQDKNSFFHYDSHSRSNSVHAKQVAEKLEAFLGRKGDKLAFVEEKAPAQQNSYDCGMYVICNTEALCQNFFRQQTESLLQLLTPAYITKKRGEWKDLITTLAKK

[5] = Luminescence Cell-Based Dose Retest to Confirm Inhibitors of Cancer Stem Cells. [Related pubchem assays (depositor defined):AID2717, AID2721]; type: functional; details: Homo sapiens
[6] = biological target: Paired box protein Pax-8 (Homo sapiens, UniProt Q06710); experiment: PAX8 transcriptional activity inhibition in RMG-I – RMG-I cells, luciferase, cherry-pick, dose response (AID 687027); type: functional, cell-based;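 also: luciferase reporter driven by Pax8 target thyroperoxidase promoter measured by SteadyGlo luminescence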
[7] = A549 cell cytotoxicity, dose response, cytotoxicity control, plate reader, cherry-pick, antagonist series (AID 743412); type: functional, cell-based
[8] = blockers of bursicon-stimulated LGR2 cAMP reporter – cell-based, HEK293, CRE-luciferase reporter, cherry pick, set 2, dose response (AID 743343); type: functional;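 also: transfected cells were stimulated with diluted bursicon conditioned medium after compound addition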
[9] = blockade of melanocortin 4 receptor signaling – cell-based, plate reader, cherry pick, counter-screen for LGR2 antagonist project, dose response (AID 743444); type: functional;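 also: transfected HEK 293 cells stimulated with alpha-MSH peptide; potency of inhibitors of the alpha-MSH evoked signal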
[10] = viability loss in HEK293 cells – cell-based, plate reader, cherry-picked samples, cytotoxicity control, dose response (AID 743446); type: functional
[11] = viability loss in THP-1 monocytes – THP-1 cells, cytotoxicity control for Vif-APOBEC3G degradation inhibitor project, dose response (AID 1117359); type: functional; details: THP-1
[12] = test system: HEK293; experiment: EBV LMP1 TES2 canonical NF-kB signalling blockers – cell-based, HEK293, luciferase, cherry-pick, dose response (AID 588343); type: functional; details: Homo sapiens
[13] = biological target: Photoreceptor-specific nuclear receptor (Homo sapiens, UniProt Q9Y5X4); type: functional, cell-based;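 also: CHO-S cells with Gal4-NCOR and VP16-NR2E3 two-hybrid luciferase reporter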
[14] = toxicity toward HepG2 liver cells – cell-based, plate reader, cherry-pick, antagonist series, cytotoxicity control, dose response (AID 743416); type: functional
[15] = blockers of HIV-1 envelope-mediated cell-cell fusion – cherry-pick, dose response (AID 652057); type: functional, cell-based
[16] = viability loss in CEM21 cells – cell-based, CellTiter-Glo luminescence, cherry-picked, cytotoxicity control for viral fusion inhibitor project, dose response (AID 652042); type: functional;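 also: potency for signal decrease meaning cytotoxicity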
[17] = off-target signal loss in HeLa-CEM21 co-culture – HeLa F-luc CTL cells, cherry-picked, counter-screen for HIV-1 Env fusion inhibitor project, dose response (AID 652040); type: functional, cell-based;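 also: potency for signal decrease marking cytotoxic or nonspecific inhibition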
[18] = HIV-1 AD8 envelope cell-cell fusion blockers – cherry-pick, dose response (AID 652062); type: functional, cell-based;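 also: luciferase signal from cell-cell fusion driven by HIV-1 clade B AD8 Env; potency is for inhibitors of fusion seen as a drop in luminescence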
[19] = test system: P388/ADR; experiment: cells; type: functional; details: Mus musculus
[20] = test system: SN12K1; experiment: cells; type: functional; details: Homo sapiens
[21] = test system: P388; experiment: cells; type: functional; details: Mus musculus

Sequence of Paired box protein Pax-8 (Q06710 whole entry): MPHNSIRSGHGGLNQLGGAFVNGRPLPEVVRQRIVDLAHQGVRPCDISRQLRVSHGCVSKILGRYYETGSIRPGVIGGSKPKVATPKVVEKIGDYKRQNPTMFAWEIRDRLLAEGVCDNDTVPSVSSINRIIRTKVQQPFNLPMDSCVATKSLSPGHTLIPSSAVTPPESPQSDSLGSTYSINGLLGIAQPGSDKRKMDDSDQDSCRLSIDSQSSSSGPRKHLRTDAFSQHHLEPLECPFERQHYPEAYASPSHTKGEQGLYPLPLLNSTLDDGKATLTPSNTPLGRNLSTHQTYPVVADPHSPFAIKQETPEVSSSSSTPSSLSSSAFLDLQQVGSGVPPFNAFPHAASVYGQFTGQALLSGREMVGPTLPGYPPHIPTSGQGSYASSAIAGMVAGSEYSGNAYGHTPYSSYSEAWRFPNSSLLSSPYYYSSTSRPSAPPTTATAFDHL
Sequence of Photoreceptor-specific nuclear receptor (Q9Y5X4 whole entry, the tested form may be a part): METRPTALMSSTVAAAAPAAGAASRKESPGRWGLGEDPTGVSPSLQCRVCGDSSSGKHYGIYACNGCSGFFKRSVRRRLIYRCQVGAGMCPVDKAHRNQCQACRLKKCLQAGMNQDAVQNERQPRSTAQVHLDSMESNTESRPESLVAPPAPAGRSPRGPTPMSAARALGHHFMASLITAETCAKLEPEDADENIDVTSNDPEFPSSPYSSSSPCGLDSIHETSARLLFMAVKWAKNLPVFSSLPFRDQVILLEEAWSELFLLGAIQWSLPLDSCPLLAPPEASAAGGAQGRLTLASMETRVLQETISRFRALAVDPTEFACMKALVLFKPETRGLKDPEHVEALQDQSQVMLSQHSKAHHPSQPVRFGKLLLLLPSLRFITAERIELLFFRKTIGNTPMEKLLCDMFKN

IC50 [1]: 37.2 µM (active) | IC50 [2]: 9.32 µM (active) | IC50 [3]: 41.8 µM (active)
SMILES: CCCCCc1ccc(-c2ccc(OC)cc2)nc1
IC50 [4]: 80.5 µM (active)

SMILES: Cn1nnnc1Sc1ncnc2scc(-c3cccc(Br)c3)c12
AC50 [5]: 1.86 µM (active) | AC50 [6]: 2.75 µM (active) | AC50 [7]: 9.25 µM (active) | AC50 [8]: 5.22 µM (active) | AC50 [9]: 6.1 µM (active) | AC50 [10]: 11.1 µM (active)

IC50 [1]: 28.8 µM (active) | IC50 [2]: 5.14 µM (active) | IC50 [3]: 7.84 µM (active)
SMILES: O=C(Nc1ccc(C2CC2(Cl)Cl)cc1)c1cccc([N+](=O)[O-])c1 (stereo unspecified)
IC50 [4]: 29.5 µM (active)

SMILES: O=C1/C(=C/c2ccco2)SC(=S)N1C1CCS(=O)(=O)C1 (stereo unspecified)
CC50 [11]: > 40 µM (active)

SMILES: COCCn1c(C)cc(C(=O)COc2ccc(C)nc2[N+](=O)[O-])c1C
AC50 [12]: 9.91 µM (active) | IC50 [13]: 5.55 µM (active)

IC50 [1]: 17.7 µM (active) | IC50 [2]: 7.71 µM (active) | IC50 [3]: 22.4 µM (active)
SMILES: O=C(NCCSc1ccccc1)c1ccc(Br)cc1
IC50 [4]: 26.8 µM (active)

SMILES: O=C(c1cc(-c2ccccc2Cl)nc2ccc(Br)cc12)N1CCN(c2ccccn2)CC1
AC50 [7]: 34.5 µM (active) | AC50 [14]: 50.3 µM (active) | AC50 [8]: 28.3 µM (active) | AC50 [9]: 29.2 µM (active) | AC50 [10]: 22.8 µM (active)

SMILES: COc1cccc(CN2CCC2(C)C(=O)Nc2cccc(Oc3ccccc3)c2)c1OC (stereo unspecified)
AC50 [15]: 3.47 µM (active) | AC50 [16]: 61.8 µM (active) | AC50 [17]: > 70 µM (inactive) | AC50 [18]: 20.4 µM (active)

SMILES: CCCCCCCCCCNC1CC(OC2CC(O)(C(O)CO)Cc3c(O)c4c(c(O)c32)C(=O)c2c(OC)cccc2C4=O)OC(C)C1O (stereo unspecified)
GI50 [19]: 1.52 µM (inactive) | GI50 [20]: 1.25 µM (inactive) | GI50 [21]: 0.168 µM (active)

SMILES: COc1c2ccoc2c(S(=O)(=O)Nc2ccc(Cl)cc2)c2oc(C)cc(=O)c12
GI50 [19]: 72.4 µM (inactive) | GI50 [20]: > 100 µM (inactive) | GI50 [21]: 69.3 µM (inactive)
